From patent US5863946A, “Iminoxyderivatives of fenamates as inhibitors of prostaglandin biosynthesis” (Abbott Laboratories, priority 1996, dated 1999)

Columns and labels:
recombinant human PGHS-1 = target: T1, recombinant human PGHS-1 (Homo sapiens, UniProt P23219); assay: Inhibition of PGE2 production by recombinant human PGHS-1 (microsomes, baculovirus/Sf9; EIA); format: biochemical; conditions: human recombinant PGHS-1; 60 min preincubation; 10 μM arachidonic acid, 2.5 min
T1 construct: made in house; host or cells: baculovirus/Sf9 insect cells (microsomes)
T1 sequence (P23219 24-599): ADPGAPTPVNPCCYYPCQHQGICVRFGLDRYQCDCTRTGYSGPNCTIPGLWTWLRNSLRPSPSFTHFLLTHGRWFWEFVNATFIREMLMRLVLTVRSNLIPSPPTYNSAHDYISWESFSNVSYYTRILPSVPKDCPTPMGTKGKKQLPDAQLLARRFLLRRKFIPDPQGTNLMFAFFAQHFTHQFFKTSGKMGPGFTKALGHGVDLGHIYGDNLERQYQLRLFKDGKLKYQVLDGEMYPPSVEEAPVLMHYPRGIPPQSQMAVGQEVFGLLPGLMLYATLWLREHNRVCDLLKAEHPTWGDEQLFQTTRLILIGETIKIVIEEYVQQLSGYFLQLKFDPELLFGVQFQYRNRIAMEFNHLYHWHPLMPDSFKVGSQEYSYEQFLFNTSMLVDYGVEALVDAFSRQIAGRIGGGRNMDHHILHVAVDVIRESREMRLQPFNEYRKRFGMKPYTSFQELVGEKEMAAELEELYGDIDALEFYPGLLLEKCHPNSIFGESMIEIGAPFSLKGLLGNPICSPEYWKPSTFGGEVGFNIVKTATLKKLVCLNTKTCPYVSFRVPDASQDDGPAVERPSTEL
Description: (§1) Inhibition of prostaglandin biosynthesis was evaluated in recombinant human PGHS-1 and PGHS-2 enzyme assays. Representative compounds dissolved in DMSO (3.3% v/v) were preincubated with microsomes from recombinant human PGHS-1 or PGHS-2 expressed in the baculovirus/Sf9 cell system (Gierse, J. K., Hauser, […]., and Seibert, K. […] The reaction was allowed to run for 2.5 minutes at room temperature prior to quenching with HCl and neutralization with NaOH. PGE2 production in the presence and absence of the drug was determined by EIA analysis. The EIA was conducted in 96 well microtiter plates (Nunc Roskilde, Denmark) and optical density measured using a microplate reader (Vmax, Molecular Devices Corp., Menlo Park, Calif.). EIA reagents for prostaglandin determination were purchased from Perseptive Diagnostics, Cambridge, Mass. PGE2 levels were measured against standards prepared in the same milieu. The immunoassays were conducted as recommended by the manufacturer.

recombinant human PGHS-2 = assay: Inhibition of PGE2 production by recombinant human PGHS-2 (microsomes, baculovirus/Sf9; EIA); format: biochemical; conditions: human recombinant PGHS-2, 60 min preincubation, 10 μM arachidonic acid, 2.5 min
Description: as §1

[1] = test system: prostaglandin endoperoxide H synthase 2 (PGHS-2); conditions: reported in literature; cited from earlier work
[2] = test system: prostaglandin endoperoxide H synthase 1 (PGHS-1); conditions: reported in literature; cited from earlier work

IC50 (recombinant human PGHS-1) [µM]	Compound	PGHS-2 % Inhibition (recombinant human PGHS-2; @ 0.1 μM) [%]	PGHS-2 % Inhibition (recombinant human PGHS-2; @ 1.0 μM) [%]	inhibition of PGHS-2 [1]	inhibition of PGHS-1 [2]
6	Cc1ccc(Cl)c(Nc2ccccc2CON=CC(=O)O)c1Cl [Example 1, glyoxylic acid-O-[2-(2,6-dichloro-3-methylphenylamino)phenylmethyl] oxime]	68			
61.1	CC(=NOCc1ccccc1Nc1c(Cl)ccc(C)c1Cl)C(=O)O [Example 2, pyruvic acid-O-[2-[(2,6-dichloro-3-methylphenyl)amino]phenylmethyl] oxime]		28		
	Cc1ccc(Cl)c(Nc2ccccc2C(=O)O)c1Cl [Meclofenamic acid]			inhibit both PGHS-1 and PGHS-2	inhibit both PGHS-1 and PGHS-2
	CC(C)Cc1ccc(C(C)C(=O)O)cc1 (stereo not shown) [ibuprofen]			inhibit both isozymes	inhibit both isozymes
	COc1ccc2cc([C@H](C)C(=O)O)ccc2c1 [naproxen]			inhibit both isozymes	inhibit both isozymes
